Laboratory results published in US9850283B2, “Macrocyclic inhibitors of the PD-1/PD-L1 and CD80(B7-1)/PD-L1 protein/protein interactions” (BRISTOL-MYERS SQUIBB COMPANY, priority 2013, dated 2017).
Read-outs that look alike come from different tables or passages of the source. Positions of bridges follow the written chain, without caps; N, C: chain ends. Non-standard residues stand in square brackets, D forms with d. Residues, ends and D or L forms follow the SMILES beside them. ξ: configuration not given here. Tyr(3,5-Br2) = N[C@@H](Cc1cc(Br)c(O)c(Br)c1)C(=O)O; Phe(3,4,5-F3) = N[C@@H](Cc1cc(F)c(F)c(F)c1)C(=O)O; Phe(4-CH2NH2) = NCc1ccc(C[C@H](N)C(=O)O)cc1; Bip = N[C@@H](Cc1ccc(-c2ccccc2)cc1)C(=O)O; Phe(3-Me) = Cc1cccc(C[C@H](N)C(=O)O)c1; Bta = N[C@@H](Cc1csc2ccccc12)C(=O)O; Hyp = O=C(O)[C@@H]1C[C@@H](O)CN1; NMeF = CN[C@@H](Cc1ccccc1)C(=O)O; NMeNle = CCCC[C@H](NC)C(=O)O; NMeA = CN[C@@H](C)C(=O)O; Orn = NCCC[C@H](N)C(=O)O; Dab = NCC[C@H](N)C(=O)O; Dap = NC[C@H](N)C(=O)O; ξC = NC(CS)C(=O)O; Sar = CNCC(=O)O

Experiments:
Human PD-L1/PD-1 = target: T1, Human PD-L1/PD-1 (Homo sapiens, UniProt Q9NZQ7); assay: HTRF PD-1-Ig/PD-L1-His binding assay (human PD-L1); details: cluster symbol; read-out: HTRF IC50 cluster
T1 construct: made in house; host or cells: HEK293T
T1 sequence (Q9NZQ7 with tags, fused parts or gaps): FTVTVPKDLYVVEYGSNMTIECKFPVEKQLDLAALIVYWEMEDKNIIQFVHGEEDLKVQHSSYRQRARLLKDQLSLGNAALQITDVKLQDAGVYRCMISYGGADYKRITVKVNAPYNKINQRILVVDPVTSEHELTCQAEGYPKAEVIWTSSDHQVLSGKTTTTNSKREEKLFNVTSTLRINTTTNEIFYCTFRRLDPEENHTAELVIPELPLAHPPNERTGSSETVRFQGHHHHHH
Outline: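 Steps: truncated PD-1-Ig and PD-L1-His fusions are incubated in dPBS containing 0.1% (w/v) BSA and 0.05% (v/v) Tween-20. Detection antibodies are then added (Eu cryptate anti-Ig at 1 nM final, APC anti-His at 20 nM final), and time-resolved FRET is measured.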

[1] = target: T2, LK35.2-hPD-L1 cells / PE-labeled PD-1-Ig (Homo sapiens, UniProt Q9NZQ7); assay: LK35.2-hPD-L1 cell binding high-content screening assay; type: cell-based; details: cluster symbol, read-out: CBA IC50 cluster
T2 construct: expressed in transfected cells; host or cells: LK35.2 mouse B cell line
T2 sequence (Q9NZQ7 19-290): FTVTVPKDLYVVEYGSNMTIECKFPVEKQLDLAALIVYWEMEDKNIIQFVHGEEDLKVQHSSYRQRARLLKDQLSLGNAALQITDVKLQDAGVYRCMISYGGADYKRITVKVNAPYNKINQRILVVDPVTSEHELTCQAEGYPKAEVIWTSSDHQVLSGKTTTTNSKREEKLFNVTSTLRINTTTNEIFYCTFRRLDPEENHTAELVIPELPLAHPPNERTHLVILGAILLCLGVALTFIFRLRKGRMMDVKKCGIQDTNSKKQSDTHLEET
Outline: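 Fluorescent PD-1-Ig binding to PD-L1-expressing LK35.2 cells, imaged after washing. Conditions: 1 nM PE-PD-1-Ig, 37 °C, 1 h, RPMI with 10% fetal calf serum.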

[2] = cell binding assay, cell line not given
[3] = cell line of CBA not given (LK35.2-hPD-L1 or 293T-hPD-L1)

IC50 (Human PD-L1/PD-1) | IC50 [1, 2] | IC50 [1, 3] | SMILES
0.385 to 6.74 nM | 0.158 to 4.71 nM |  | CCCC[C@H]1C(=O)N(C)[C@@H](CCCC)C(=O)N[C@@H](CO)C(=O)NC(C(=O)NCC(N)=O)CSCC(=O)N[C@@H](Cc2ccc(O)cc2)C(=O)N(C)[C@@H](C)C(=O)N[C@@H](CC(N)=O)C(=O)N2CCC[C@H]2C(=O)N[C@@H](Cc2cnc[nH]2)C(=O)N[C@@H](CC(C)C)C(=O)N2CCC[C@H]2C(=O)N[C@@H](Cc2c[nH]c3ccccc23)C(=O)N[C@@H](CO)C(=O)N[C@@H](Cc2csc3ccccc23)C(=O)N1C (stereo partly shown) [Example 9027] ({CH2CO}-Y[NMeA]NPHLPWS[Bta][NMeNle][NMeNle]S[ξC]G-NH2; thioether N-14)
6.76 to 30.3 nM | 0.158 to 4.71 nM |  | CCCC[C@H]1C(=O)N(C)[C@@H](CCCC)C(=O)N[C@@H](CCCNC(=N)N)C(=O)N[C@H](C(=O)NCC(N)=O)CSCC(=O)N[C@@H](Cc2ccc(O)cc2)C(=O)N(C)[C@@H](C)C(=O)N[C@@H](CC(N)=O)C(=O)N2CCC[C@H]2C(=O)N[C@@H](Cc2cnc[nH]2)C(=O)N[C@@H](CCN)C(=O)N2C[C@H](O)C[C@H]2C(=O)N[C@@H](Cc2c[nH]c3ccccc23)C(=O)N[C@@H](CO)C(=O)N[C@@H](Cc2c[nH]c3ccccc23)C(=O)N1C [Example 5022] ({CH2CO}-Y[NMeA]NPH[Dab][Hyp]WSW[NMeNle][NMeNle]RCG-NH2; thioether N-14)
0.385 to 6.74 nM | 4.78 to 72.9 nM |  | CCCC[C@H]1C(=O)N(C)[C@@H](CCCC)C(=O)N[C@@H](CCCNC(=N)N)C(=O)N[C@H](C(=O)NCC(N)=O)CSCC(=O)N[C@@H](Cc2ccc(O)cc2)C(=O)N(C)[C@@H](C)C(=O)N[C@@H](CCN)C(=O)N2CCC[C@H]2C(=O)NCC(=O)N[C@@H](CCC(=O)O)C(=O)N2C[C@H](O)C[C@H]2C(=O)N[C@@H](Cc2c[nH]c3ccccc23)C(=O)N[C@@H](CO)C(=O)N[C@@H](Cc2c[nH]c3ccccc23)C(=O)N1C [Example 5129] ({CH2CO}-Y[NMeA][Dab]PGE[Hyp]WSW[NMeNle][NMeNle]RCG-NH2; thioether N-14)
0.385 to 6.74 nM | 4.78 to 72.9 nM |  | CCCC[C@H]1C(=O)N(C)CC(=O)N[C@@H](CC(=O)O)C(=O)N[C@@H](C(C)C)C(=O)N(C)[C@@H](Cc2ccccc2)C(=O)N[C@@H](Cc2ccc(O)cc2)C(=O)N(C)[C@@H](CCC(=O)O)C(=O)N[C@@H](Cc2c[nH]c3ccccc23)C(=O)N[C@@H](Cc2ccc(O)cc2)C(=O)N[C@@H](CC(C)C)C(=O)N[C@H](C(=O)NCC(N)=O)CSCC(=O)N[C@@H](Cc2ccccc2)C(=O)N(C)[C@@H](Cc2ccccc2)C(=O)N1C [Example 3512] (HELM PEPTIDE1{[O=C(C[*:3])[*:2]].F.[meF].[CCCC[C@@H](C(=O)[*:2])N(C)[*:1]].[Sar].D.V.[meF].Y.[meE].W.Y.L.C.G.[am]}$PEPTIDE1,PEPTIDE1,1:R3-14:R3$$$V2.0)
0.385 to 6.74 nM | 0.158 to 4.71 nM |  | CCCC[C@H]1C(=O)N(C)[C@@H](CCCC)C(=O)N[C@@H](CCCNC(=N)N)C(=O)N[C@H](C(=O)NCC(N)=O)CSCC(=O)N[C@@H](Cc2ccc(OC)cc2)C(=O)N(C)[C@@H](C)C(=O)N[C@@H](CC(N)=O)C(=O)N2CCC[C@H]2C(=O)N[C@@H](CN)C(=O)N[C@@H](CC(C)C)C(=O)N2C[C@H](O)C[C@H]2C(=O)N[C@@H](Cc2c[nH]c3ccccc23)C(=O)N[C@@H](CO)C(=O)N[C@@H](Cc2c[nH]c3ccccc23)C(=O)N1C [Example 7039] ({CH2CO}-Y(Me)[NMeA]NP[Dap]L[Hyp]WSW[NMeNle][NMeNle]RCG-NH2; thioether N-14)
6.76 to 30.3 nM |  | 4.78 to 72.9 nM | CCCC[C@H]1C(=O)N(C)[C@@H](CCCC)C(=O)N[C@@H](CCCNC(=N)N)C(=O)N[C@H](C(=O)NCC(N)=O)CSCC(=O)N[C@@H](Cc2cccc(C)c2)C(=O)N(C)[C@@H](C)C(=O)N[C@@H](CC(N)=O)C(=O)N2CCC[C@H]2C(=O)N[C@@H](Cc2cnc[nH]2)C(=O)N[C@@H](CC(C)C)C(=O)N(C)CC(=O)N[C@@H](Cc2c[nH]c3ccccc23)C(=O)N[C@@H](CO)C(=O)N[C@@H](Cc2c[nH]c3ccccc23)C(=O)N1C [Example 1097] ({CH2CO}-[Phe(3-Me)][NMeA]NPHL[Sar]WSW[NMeNle][NMeNle]RCG-NH2; thioether N-14)
6.76 to 30.3 nM | 0.158 to 4.71 nM |  | CCCC[C@H]1C(=O)N(C)[C@@H](CCCC)C(=O)N[C@@H](CCCNC(=N)N)C(=O)N[C@H](C(=O)NCC(=O)O)CSCC(=O)N[C@@H](Cc2ccc(O)cc2)C(=O)N(C)[C@@H](C)C(=O)N[C@@H](CC(N)=O)C(=O)N2CCC[C@H]2C(=O)N[C@@H](Cc2cnc[nH]2)C(=O)N[C@@H](CC(C)C)C(=O)N2C[C@H](O)C[C@H]2C(=O)N[C@@H](Cc2c[nH]c3ccccc23)C(=O)N[C@@H](CO)C(=O)N[C@@H](Cc2c[nH]c3ccccc23)C(=O)N1C [Example 5068]

The remaining lines, values behind:

SMILES | IC50 (Human PD-L1/PD-1) | IC50 [1, 2] | IC50 [1, 3]
CCCC[C@H]1C(=O)N(C)[C@@H](CCCC)C(=O)N[C@@H](CCCNC(=N)N)C(=O)N[C@H](C(=O)NCC(N)=O)CSCC(=O)N[C@@H](Cc2ccc(O)cc2)C(=O)N(C)[C@@H](C)C(=O)N[C@@H](CCN)C(=O)N2CCC[C@H]2C(=O)N[C@@H](Cc2c[nH]cn2)C(=O)N[C@@H](CCC(N)=O)C(=O)N2C[C@H](O)C[C@H]2C(=O)N[C@@H](Cc2c[nH]c3ccccc23)C(=O)N[C@@H](CO)C(=O)N[C@@H](Cc2c[nH]c3ccccc23)C(=O)N1C [Example 5092] ({CH2CO}-Y[NMeA][Dab]PHQ[Hyp]WSW[NMeNle][NMeNle]RCG-NH2; thioether N-14) | 6.76 to 30.3 nM | 4.78 to 72.9 nM | 
CCCC[C@H]1C(=O)N(C)[C@@H](CCCC)C(=O)N[C@@H](C)C(=O)N[C@H](C(N)=O)CSCC(=O)N[C@@H](Cc2ccc(O)cc2)C(=O)N(C)[C@@H](C)C(=O)N[C@@H](CC(=O)O)C(=O)N2CCC[C@H]2C(=O)N[C@@H](Cc2cnc[nH]2)C(=O)N[C@@H](CCCN)C(=O)N2C[C@H](O)C[C@H]2C(=O)N[C@@H](Cc2c[nH]c3ccccc23)C(=O)N[C@@H](CO)C(=O)N[C@@H](Cc2c[nH]c3ccccc23)C(=O)N1C [Example 1231] ({CH2CO}-Y[NMeA]DPH[Orn][Hyp]WSW[NMeNle][NMeNle]AC-NH2; thioether N-14) | 0.385 to 6.74 nM |  | 0.158 to 4.71 nM
CCCC[C@H]1C(=O)N(C)[C@@H](CCCC)C(=O)N[C@@H](CCCNC(=N)N)C(=O)NC(C(=O)N[C@@H](CO)C(N)=O)CSCC(=O)N[C@@H](Cc2ccc(O)cc2)C(=O)N(C)[C@@H](C)C(=O)N[C@@H](CC(N)=O)C(=O)N2CCC[C@H]2C(=O)N[C@@H](Cc2cnc[nH]2)C(=O)N[C@@H](CO)C(=O)N2CCC[C@H]2C(=O)N[C@@H](Cc2c[nH]c3ccccc23)C(=O)N[C@@H](CO)C(=O)N[C@@H](Cc2csc3ccccc23)C(=O)N1C (stereo partly shown) [Example 9076] ({CH2CO}-Y[NMeA]NPHSPWS[Bta][NMeNle][NMeNle]R[ξC]S-NH2; thioether N-14) | 0.385 to 6.74 nM | 4.78 to 72.9 nM | 
CCCCC1C(=O)N[C@@H](CCC(=O)O)C(=O)N[C@@H](CC(=O)O)C(=O)N[C@@H](C(C)C)C(=O)N(C)[C@@H](Cc2ccccc2)C(=O)N[C@@H](Cc2ccc(O)cc2)C(=O)N(C)CC(=O)N[C@@H](Cc2c[nH]c3ccccc23)C(=O)N[C@@H](Cc2ccc(O)cc2)C(=O)N[C@@H](CC(C)C)C(=O)N[C@H](C(=O)NCC(N)=O)CSCC(=O)N[C@@H](Cc2ccccc2)C(=O)N(C)[C@@H](Cc2ccccc2)C(=O)N1C (stereo partly shown) [Example 3500] (HELM PEPTIDE1{[O=C(C[*:3])[*:2]].F.[meF].[CCCCC(C(=O)[*:2])N(C)[*:1]].E.D.V.[meF].Y.[Sar].W.Y.L.C.G.[am]}$PEPTIDE1,PEPTIDE1,1:R3-14:R3$$$V2.0) | > 30.5 nM | > 74.3 nM | 
CCCC[C@H]1C(=O)N(C)CC(=O)N[C@@H](CC(N)=O)C(=O)N[C@@H](C(C)C)C(=O)N(C)[C@@H](Cc2ccccc2)C(=O)N[C@@H](Cc2ccc(O)cc2)C(=O)N(C)CC(=O)N[C@@H](Cc2c[nH]c3ccccc23)C(=O)N[C@@H](Cc2ccc(O)cc2)C(=O)N[C@@H](CCCN)C(=O)N[C@H](C(=O)NCC(N)=O)CSCC(=O)N[C@@H](Cc2ccccc2)C(=O)N[C@@H](Cc2ccc(-c3ccccc3)cc2)C(=O)N1C [Example 3611] ({CH2CO}-F[Bip][NMeNle][Sar]NV[NMeF]Y[Sar]WY[Orn]CG-NH2; thioether N-13) | > 30.5 nM | > 74.3 nM | 
CCCC[C@H]1C(=O)N2CCC[C@@H]2C(=O)N[C@@H](CO)C(=O)N[C@@H](C(C)C)C(=O)N(C)[C@@H](Cc2ccccc2)C(=O)N[C@@H](Cc2ccc(CN)cc2)C(=O)N2CCC[C@@H]2C(=O)N[C@@H](Cc2c[nH]c3ccccc23)C(=O)N[C@@H](Cc2ccc(O)cc2)C(=O)N[C@@H](CCCCN)C(=O)N[C@H](C(=O)NCC(N)=O)CSCC(=O)N[C@@H](Cc2cc(F)c(F)c(F)c2)C(=O)N(C)[C@@H](Cc2ccccc2)C(=O)N1C [Example 3199] ({CH2CO}-[Phe(3,4,5-F3)][NMeF][NMeNle][dP]SV[NMeF][Phe(4-CH2NH2)][dP]WYKCG-NH2; thioether N-13) | 6.76 to 30.3 nM |  | 0.158 to 4.71 nM
CCCC[C@H]1C(=O)N(C)CC(=O)N[C@@H](CC(=O)O)C(=O)N[C@@H](C(C)C)C(=O)N(C)[C@@H](Cc2ccccc2)C(=O)N[C@@H](Cc2ccc(O)cc2)C(=O)N(C)CC(=O)N[C@@H](Cc2c[nH]c3ccccc23)C(=O)N[C@@H](Cc2cc(Br)c(O)c(Br)c2)C(=O)N[C@@H](CC(C)C)C(=O)N[C@H](C(=O)NCC(N)=O)CSCC(=O)N[C@@H](Cc2ccccc2)C(=O)N(C)[C@@H](Cc2ccccc2)C(=O)N1C [Example 3112] ({CH2CO}-F[NMeF][NMeNle][Sar]DV[NMeF]Y[Sar]W[Tyr(3,5-Br2)]LCG-NH2; thioether N-13) | > 30.5 nM |  | > 74.3 nM
